From ChEMBL document CHEMBL3988442, “University of Dundee, Small-Polar-MMV Screening Library” (2021)

These compounds were tested against Tryptophan--tRNA ligase (Mycobacterium tuberculosis (strain ATCC 25618 / H37Rv), UniProt P9WFT3) (assay: Biochemical assay for Mt-TrpRS).
Tryptophan--tRNA ligase, sequence (P9WFT3 whole entry): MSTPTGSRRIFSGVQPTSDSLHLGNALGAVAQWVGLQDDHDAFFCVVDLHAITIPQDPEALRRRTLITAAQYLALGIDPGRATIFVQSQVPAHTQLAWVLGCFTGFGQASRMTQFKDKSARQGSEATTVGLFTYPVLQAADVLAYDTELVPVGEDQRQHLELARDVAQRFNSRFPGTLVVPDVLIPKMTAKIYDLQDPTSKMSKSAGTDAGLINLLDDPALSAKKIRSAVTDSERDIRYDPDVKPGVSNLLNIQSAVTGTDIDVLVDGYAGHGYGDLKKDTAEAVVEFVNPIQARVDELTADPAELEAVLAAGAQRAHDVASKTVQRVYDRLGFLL
Format: functional
Work on `CNC(=O)c1cc2ccccc2n1C` yielded an IC50 greater than 195 µM. `COc1ccc(C(=O)Nc2cccc(SC)c2)c(OC)n1` gave an IC50 greater than 195 µM. `CCCNc1ccc(C(=O)NCCc2cccc(OC)c2)cn1` gave an IC50 greater than 195 µM. Compound `O=C(NCCCn1ccnc1)c1cccnc1OCC(F)(F)F` has an IC50 greater than 195 µM. For `O=C(NCCc1ccncc1)c1cccnc1OCC(F)(F)F`, the IC50 was greater than 195 µM. Work on `O=C(c1cccnc1Oc1ccc(Cl)cc1)N1CC[C@@H](O)C1` yielded an IC50 greater than 195 µM. Work on `N#Cc1cnc(N2CCC3(CC2)OCCO3)nc1N` yielded an IC50 greater than 195 µM. With `CC(=O)N1N=C(c2ccccc2)OC1C(=O)NCCc1cccc(F)c1` (configuration not stated) the IC50 was greater than 195 µM. Work on `CC(C)c1ccc(-n2ncc(C(=O)NCC3COC(C)(C)O3)c2N)cc1` (configuration not stated) yielded an IC50 greater than 195 µM. `CC(=O)N1N=C(c2cccs2)OC1C(=O)NCCc1cccc(Cl)c1` (configuration not stated) showed an IC50 greater than 195 µM. Compound `CCOC(=O)CNC(=O)C1OC(c2ccccc2)=NN1C(C)=O` (configuration not stated) has an IC50 greater than 195 µM. With `Cc1cc(CN(C)CCC(O)c2ccccc2)no1` (configuration not stated) the IC50 was greater than 195 µM. Work on `Nc1c(N2CCCC2)ncnc1N1CCOCC1` yielded an IC50 greater than 195 µM. In the case of `CC(=O)c1cc2ncc(C(=O)NC3CC3)cc2[nH]1`, the IC50 is reported as greater than 195 µM. For `CNC(=O)c1cnc2c(C)csc2c1`, the IC50 was greater than 195 µM. `COc1c(C(=O)N2CCNC(=O)C2)cnc2c1c(C)nn2C` was tested, and the IC50 was greater than 195 µM. Compound `Cn1c(C(=O)NCC2(N)CCCC2)cc2ccccc21` has an IC50 greater than 195 µM. For `CC(C)(Oc1ccc(C(N)=O)cc1)C(=O)N(CCC#N)CC1CCCO1` (configuration not stated), the IC50 was greater than 195 µM. With `CC(C)(C)C(=O)CN1Cc2ccccc2NCCC1=O` the IC50 was greater than 195 µM. `COc1ccc2c(c1)CN(Cc1ccco1)C(=O)CCN2` was tested, and the IC50 was greater than 195 µM. With `CCN1Cc2cc(F)ccc2N(CC(O)C(F)(F)F)CCC1=O` (configuration not stated) the IC50 was greater than 195 µM. For `CC(C)CC(=O)N1CC(=O)N(Cc2ccco2)CC(O)C1` (configuration not stated), the IC50 was greater than 195 µM. Work on `CCCC1CN(CCOc2ccccc2)C(=O)c2cccnc2O1` (configuration not stated) yielded an IC50 greater than 195 µM. With `CCCC1CN(CC(C)C)C(=O)c2cccnc2O1` (configuration not stated) the IC50 was greater than 195 µM. In the case of `CC(C)CN1C[C@H](COCc2ccccc2)Oc2ncccc2C1=O`, the IC50 is reported as greater than 195 µM. Work on `O=C(c1ccco1)N1C(CO)[C@]2(O)CC[C@H]1CC2` (some centres not stated) yielded an IC50 greater than 195 µM. Work on `O=S(=O)(c1ccccc1)N1C(CN2CCOCC2)[C@]2(O)CC[C@H]1CC2` (some centres not stated) yielded an IC50 greater than 195 µM. `COc1ccc2c3c1CN(C(C)=O)CC3=CC(C)(C)CO2` gave an IC50 greater than 195 µM. `CC(C)CC(=O)N1CC(=O)N(CCc2ccccc2)CC(O)C1` (configuration not stated) was tested, and the IC50 was greater than 195 µM. Work on `CC(C)(C)OC(=O)N1CC(=O)N(CCc2ccccc2)CC(O)C1` (configuration not stated) yielded an IC50 greater than 195 µM. `CCS(=O)(=O)N1CC(=O)N(Cc2ccccc2OC)CC(O)C1` (configuration not stated) was tested, and the IC50 was greater than 195 µM. Work on `COc1cccc(CN2CC(O)CN(C(=O)C(C)(C)C)CC2=O)c1OC` (configuration not stated) yielded an IC50 greater than 195 µM. Work on `CCCS(=O)(=O)N1CC(=O)N(Cc2cccc(OC)c2OC)CC(O)C1` (configuration not stated) yielded an IC50 greater than 195 µM. `COc1ccccc1CN1CC(O)CN(S(=O)(=O)C(C)C)CC1=O` (configuration not stated) showed an IC50 greater than 195 µM. Work on `COc1cccc(OC)c1CN1CC(O)CN(S(C)(=O)=O)CC1=O` (configuration not stated) yielded an IC50 greater than 195 µM. Compound `COC1CN(C(=O)CC2CCCC2)CCC(=O)N(C)c2ccccc21` (configuration not stated) has an IC50 greater than 195 µM. For `Cn1cccc1CNC(=O)CCCc1nnc2ccccn12`, the IC50 was greater than 195 µM. With `N#Cc1cn[nH]c1NCc1cc(Br)ccc1O` the IC50 was 31.4 µM. For `NC(=O)CN1CCC(c2noc3cc(F)ccc23)CC1`, the IC50 was greater than 195 µM. In the case of `COc1cccc(F)c1CN1CCC(c2nc(C)cc(C)n2)C1` (configuration not stated), the IC50 is reported as greater than 195 µM. `COc1ccccc1OCCc1nnc(NC(=O)C2CC23CCC3)s1` (configuration not stated) was tested, and the IC50 was greater than 195 µM. For `Cc1sc2c(C3CCCN(C)C3)nc(C)n2c1C` (configuration not stated), the IC50 was greater than 195 µM. Compound `COc1cccc(CN2CC[C@H](NC(C)=O)[C@@H](O)CC2)c1F` has an IC50 greater than 195 µM. For `COc1cc(CN2CC[C@H](NC(C)=O)[C@@H](O)CC2)ccc1F`, the IC50 was greater than 195 µM. For `COc1ccc(CN2CC[C@H](NC(C)=O)[C@@H](O)CC2)c(F)c1`, the IC50 was greater than 195 µM. With `CC(=O)N1CCCC1c1cccc(Cc2ccccc2Cl)n1` (configuration not stated) the IC50 was greater than 195 µM. `Cc1nc(CCC(=O)NCC(N)=O)cc(C2CCNCC2)n1` was tested, and the IC50 was greater than 195 µM. In the case of `NC(=O)C1(CCCc2ccccn2)CCCN(CCO)C1` (configuration not stated), the IC50 is reported as greater than 195 µM. `CC1(C(=O)N2CCOCC2)CN(Cc2ncc[nH]2)CCO1` (configuration not stated) showed an IC50 greater than 195 µM. Work on `CC(=O)N1CCCC1c1cccc(Oc2ccccc2F)n1` (configuration not stated) yielded an IC50 greater than 195 µM. `CN(Cc1ccc(F)cc1)CC1(O)CCN(C(=O)c2ccncc2)C1` (configuration not stated) gave an IC50 greater than 195 µM. In the case of `CC(=O)Nc1nc(C2CCN(C(=O)c3cncs3)CC2)cs1`, the IC50 is reported as greater than 195 µM. `CN1CCC(c2cccc(Cc3ccccc3)n2)CC1` gave an IC50 greater than 195 µM. `CNC(=O)CCc1cc(C)nc(C2CCCCN2)n1` (configuration not stated) was tested, and the IC50 was greater than 195 µM. Compound `NC(=O)C1(CCCc2ccccn2)CCCN(Cc2ccncc2)C1` (configuration not stated) has an IC50 greater than 195 µM. In the case of `NC(=O)C1(CCCc2ccccn2)CCCN(Cc2ncc[nH]2)C1` (configuration not stated), the IC50 is reported as greater than 195 µM. With `CN1CC(c2cc(O)nc(NCc3ccc(Cl)cc3)n2)CC1=O` (configuration not stated) the IC50 was greater than 195 µM. With `Cc1ccc(CNc2nc(O)cc(C3CC(=O)N(C)C3)n2)cc1` (configuration not stated) the IC50 was greater than 195 µM. With `Cc1cccnc1C(=O)N1CCC(Cc2cnc3[nH]ccc3c2)CC1` the IC50 was greater than 195 µM. With `Cn1nc(C2CN(C(=O)c3ccncc3)C2)c2nccnc21` the IC50 was greater than 195 µM. For `O=C(N[C@@H]1CC[C@@H](n2ccnc2)[C@@H]1O)c1cc2c(s1)CCC2`, the IC50 was greater than 195 µM. `Cc1ccnc(C2CCN(C(=O)c3cnn(C)c3)C2)n1` (configuration not stated) was tested, and the IC50 was greater than 195 µM.
